# In publication PMC11375702, “Early Preclinical Studies of Ergosterol Peroxide and Biological Evaluation of Its Derivatives” (ACS Omega, 2024):
# Where two headings read alike, the source gives them in different places.
# Assays:
# [1] = system: BJ; assay: CellTiter-Glo 72 h cytotoxicity assay, BJ normal fibroblasts; type: cell-based; conditions: Homo sapiens, CTG assay, noncancerous fibroblasts
# Method: (§1) The following stable human cell lines were utilized for this study: SUM149 and MDA-MB-231 (breast cancer models) and BJ (human normal fibroblast, foreskin). Cells were purchased from BioIVT or the American Type Culture Collection (ATCC). Cells were cultured in F-12-Nutrient Mixture (SUM149), DMEM (MDA-MB-231), or EMEM (BJ) medium supplemented with 10% fetal bovine serum (Sigma-Aldrich, St. Louis, MO) and 2 mmol of L-glutamine, at 37 °C in a humidified 5% CO2 atmosphere (no antibiotics) as indicated by the manufacturer. Cell cultures were grown to 80–90% confluence before use, except where otherwise specified. Our cell lines are authenticated every 3 months using the CellCheck service (Idexx BioResearch, Westbrook, ME). Cells were tested for mycoplasma prior to use (MycoAlert detection Kit Lonza LT07–318) and discarded if they tested positive. A cell proliferation assay was performed using the CellTiter-Glo (Promega Corp., Madison, WI) luminescent cell viability assay kit. Cells were detached with trypsin, counted, and seeded in white polystyrene flat-bottom sterile 96-well tissue culture-treated plates (catalog no. 3917, Corning, Glendale, Arizona) and incubated overnight at 37 °C. MDA-MB231, SUM149, and BJ cells were seeded into 96-well plates at concentrations experimentally determined (0.4 × 10^4, 0.25 × 10^4, and 0.3 × 10^4 cells per well, respectively) to ensure logarithmic growth during the duration of the experiment and to prevent adverse effects on cell growth by DMSO exposure. The plates were incubated for 12 h before treatment. Stock solutions of test compounds (10 mM in DMSO) in nine 3-fold serial dilutions were dispensed. The final concentration of DMSO was 0.3% (v/v) in each well. The positive control used was staurosporine (10 μM) as the kill-all control, and the negative control used is DMSO as we have published. Staurosporine is a potent alkaloid inducer of various cell death modalities but primarily apoptosis, making it a reliable positive control for viability assays. The plates were incubated for 72 h and then quenched with CTG at 50 μL per well at RT. Plates were then incubated at RT for 20 min and centrifuged at 1000 rpm for 1 min. Luminescence was read on a CLARIOstar Plus plate reader (BMG LabTech, Ortenberg, Germany).
# Three or four technical replicates were conducted for each experimental condition, and a minimum of three independent experiments were conducted for each assay. In vitro ADME values were expressed as mean ± standard deviation (SD) of at least three independent experiments. One-way analysis of variance (ANOVA) was adopted for comparisons among groups using the GraphPad Prism 10.2.3 (GraphPad Software, San Diego, CA). A difference of P < 0.05 was considered as statistically significant. Data are expressed as mean ± SEM. For CTG, the mean luminescence of each experimental treatment group was normalized as a percentage of the mean intensity of untreated controls (DMSO as vehicle). EC50 values were calculated from dose–response curve fitting via nonlinear regression using GraphPad Prism 10.2.3 (GraphPad Software, San Diego, CA). A therapeutic index (TI) between normal and tumor cell lines can be determined (EC50 non-neoplastic cell line BJ)/(EC50 cancer cell line). In vivo studies were analyzed using mixed-effects regression models to compare the changes in tumor volume over time by treatment group. Tumor volume reduction was compared using ANOVA with repeated measures, and all data was considered significant when P < 0.05.
# [2] = Aqueous solubility by UV/vis absorbance; type: physicochemical; conditions: kinetic from dmso stock
# Excerpt: (§2) First, topological polar surface area (tPSA), a widely used molecular descriptor that provides insight into compound absorption and membrane penetration, was theoretically calculated for these compounds along with the estimated c log P (partition coefficient) or log P to further assess their global therapeutic potential.[18],[19] Lipophilicity, a measurable and predictable physical property, can provide practical guidance in designing compounds with improved molecular properties.[20] The tPSA sums the contribution of the surface area of polar atoms, enabling us to determine whether the compounds are more likely to be cell membrane permeable. The aqueous solubility was measured by ultraviolet/visible (UV/vis) spectroscopy.[21] […] EP shares an improved cLogP, but still relatively high from a desirable drug candidate (2.5–3.5). […] Compound 4 has a higher c log P, while compounds 5–10 have lower c log P values. To determine LiPE (lipophilicity efficiency), the following formula was used: LiPE = pIC50 – log P, according to established methods.[22],[23] […] The obtained EC50 values for the newly generated EP derivatives were within a similar range for other derivatives previously described against TNBC models.[17]
# Briefly, clear 96-well PS plates with lids (catalog no. 3903, Corning, Glendale, Arizona) were used for spectrophotometric determination of absorbance with a CLARIOstar Plus plate reader (BMG LabTech, Ortenberg, Germany) to determine at which concentration the compounds are precipitating out of solution. Decrease in transmittance of 2% or higher was considered significant. Compound solutions of 10 mM in DMSO were prepared followed by a serial dilution series, which were vortexed to ensure the solutions were homogeneous. The 96-well plate was then prepared with distilled H2O and allowed to equilibrate for 1.5 h. Then, the plate was placed in a CLARIOstar Plus plate reader or Cytation C10 (Biotek, Agilent) and set to detect absorbance at 220–700 nm. Each well was read individually. Three replicate assays were conducted for each experimental condition, and a minimum of three independent experiments were conducted.
# [3] = system: SUM149; assay: CellTiter-Glo 72 h cytotoxicity assay, SUM149; type: cell-based; conditions: Homo sapiens; for EC50: SUM149, CTG assay, 72 h; for IC50: calculated from SUM149 EC50
# Excerpt: as §2, §1
# Three or four technical replicates were conducted for each experimental condition, and a minimum of three independent experiments were conducted for each assay. In vitro ADME values were expressed as mean ± standard deviation (SD) of at least three independent experiments. One-way analysis of variance (ANOVA) was adopted for comparisons among groups using the GraphPad Prism 10.2.3 (GraphPad Software, San Diego, CA). A difference of P < 0.05 was considered as statistically significant. […]
SMILES,EC50 [1] [µM],"solubility at […] ([2]; distilled water, distilled H2O, UV/vis, read-out: solubility limit) [µg/mL]",EC50 [3] [µM],IC50 [3] [µM],solubility at […] ([2]; water) [µg/mL]
"CC(C)[C@@H](C)/C=C/[C@@H](C)[C@H]1CC[C@@H]2[C@]1(C)CC[C@H]1[C@]23C=C[C@]2(C[C@@H](O)CC[C@]12C)OO3 [Compound 2, Ergosterol peroxide]",> 50,21.4,6,6.03,–
CC(C)[C@@H](C)/C=C/[C@@H](C)[C@H]1CC[C@@H]2[C@]1(C)CC[C@H]1[C@]23C=C[C@]2(CC(=O)CC[C@]12C)OO3 [Compound 3],> 50,–,5,5.01,10.7
